Consider ten compounds from the NIST ThermoML archive (doi:10.1016/j.jct.2012.01.019).

This series can be described thus: activity coefficient (dimensionless); of the first substance listed, at infinite dilution; xn = mol fraction of the nth substance listed. As to conditions: 101 kPa, Liquid, Chromatography, x1 = 0.

Numbers after ± are expanded uncertainties.

With `CCC(=O)CC` [pentan-3-one] + COCC[N+]1(C)CCCCC1.O=S(=O)([N-]S(=O)(=O)C(F)(F)F)C(F)(F)F, the activity coefficient was determined as 0.785 ± 0.051 (318.15 K); 0.801 ± 0.052 (328.15 K); 0.821 ± 0.053 (338.15 K); 0.838 ± 0.054 (348.15 K); 0.852 ± 0.055 (358.15 K); 0.869 ± 0.056 (368.15 K).

For `CCCCC` [pentane] + COCC[N+]1(C)CCCCC1.O=S(=O)([N-]S(=O)(=O)C(F)(F)F)C(F)(F)F, the activity coefficient worked out at 11.8 ± 0.5 (318.15 K); 11.3 ± 0.5 (328.15 K); 10.8 ± 0.5 (338.15 K); 10.3 ± 0.5 (348.15 K); 9.86 ± 0.45 (358.15 K); 9.48 ± 0.44 (368.15 K).

In the case of `CCCO` [propan-1-ol] + COCC[N+]1(C)CCCCC1.O=S(=O)([N-]S(=O)(=O)C(F)(F)F)C(F)(F)F, the activity coefficient was 2.13 ± 0.14 (318.15 K); 1.93 ± 0.13 (328.15 K); 1.77 ± 0.12 (338.15 K); 1.61 ± 0.11 (348.15 K); 1.5 ± 0.1 (358.15 K); 1.4 ± 0.09 (368.15 K).

For the compound `CC(C)O` [propan-2-ol] + COCC[N+]1(C)CCCCC1.O=S(=O)([N-]S(=O)(=O)C(F)(F)F)C(F)(F)F, the activity coefficient amounted to 1.92 ± 0.13 (318.15 K); 1.76 ± 0.12 (328.15 K); 1.61 ± 0.11 (338.15 K); 1.47 ± 0.1 (348.15 K); 1.37 ± 0.09 (358.15 K); 1.28 ± 0.08 (368.15 K).

Take `c1ccncc1` [pyridine] + COCC[N+]1(C)CCCCC1.O=S(=O)([N-]S(=O)(=O)C(F)(F)F)C(F)(F)F: the activity coefficient reads like this: (318.15 K) 0.548 ± 0.04; (328.15 K) 0.555 ± 0.04; (338.15 K) 0.562 ± 0.04; (348.15 K) 0.57 ± 0.041; (358.15 K) 0.577 ± 0.041; (368.15 K) 0.583 ± 0.041.

For the compound `C=Cc1ccccc1` [styrene] + COCC[N+]1(C)CCCCC1.O=S(=O)([N-]S(=O)(=O)C(F)(F)F)C(F)(F)F, the activity coefficient was determined as 1.08 ± 0.07 (318.15 K); 1.1 ± 0.07 (328.15 K); 1.13 ± 0.07 (338.15 K); 1.14 ± 0.07 (348.15 K); 1.16 ± 0.07 (358.15 K); 1.19 ± 0.08 (368.15 K).

Consider `C1CCOC1` [tetrahydrofuran] + COCC[N+]1(C)CCCCC1.O=S(=O)([N-]S(=O)(=O)C(F)(F)F)C(F)(F)F, for which the activity coefficient was 0.76 ± 0.05 (318.15 K); 0.773 ± 0.051 (328.15 K); 0.787 ± 0.051 (338.15 K); 0.799 ± 0.052 (348.15 K); 0.809 ± 0.052 (358.15 K); 0.821 ± 0.053 (368.15 K).

For `c1ccsc1` [thiophene] + COCC[N+]1(C)CCCCC1.O=S(=O)([N-]S(=O)(=O)C(F)(F)F)C(F)(F)F, the activity coefficient (318.15 K) amounted to 0.787 ± 0.051; the activity coefficient (328.15 K) came out at 0.798 ± 0.052; the activity coefficient (338.15 K) amounted to 0.808 ± 0.052; the activity coefficient (348.15 K) came out at 0.819 ± 0.053; the activity coefficient (358.15 K) stood at 0.829 ± 0.053; the activity coefficient (368.15 K) worked out at 0.839 ± 0.054.

Turning to `Cc1ccccc1` [toluene] + COCC[N+]1(C)CCCCC1.O=S(=O)([N-]S(=O)(=O)C(F)(F)F)C(F)(F)F, the activity coefficient (318.15 K) came to 1.29 ± 0.08; the activity coefficient (328.15 K) came to 1.3 ± 0.08; the activity coefficient (338.15 K) is 1.32 ± 0.09; the activity coefficient (348.15 K) was found to be 1.33 ± 0.09; the activity coefficient (358.15 K) amounted to 1.34 ± 0.09; the activity coefficient (368.15 K) was 1.35 ± 0.09.

Regarding `O` [water] + COCC[N+]1(C)CCCCC1.O=S(=O)([N-]S(=O)(=O)C(F)(F)F)C(F)(F)F, the activity coefficient reads like this: (318.15 K) 3.35 ± 0.23; (328.15 K) 2.93 ± 0.2; (338.15 K) 2.62 ± 0.18; (348.15 K) 2.33 ± 0.16; (358.15 K) 2.07 ± 0.14; (368.15 K) 1.87 ± 0.13.
